Measured values from US20230143775A1, “METHODS OF TREATING CORONAVIRUS INFECTIONS” (EAGLE PHARMACEUTICALS, INC., priority 2020, published 2023).
≈ marks a conversion by molar mass, not a printed value.

Columns and labels:
uninfected Vero E6 cells = settings: lower dilutions (<50 μM dantrolene), without virus
SARS-CoV-2 = test: Virus neutralization (VN) assay, scoring SARS-CoV-2 cytopathic effects (CPE) in Vero E6 cells; assay type: cell-based; settings: for Day 2 Read (CPE) / Day 4 Read (CPE) / Day 6 Read (CPE): triplicate wells
[1] = 20 μM dantrolene (as […]), […], Vero E6 cells
[2] = 30 μM dantrolene (as […]), […], Vero E6 cells
[3] = 40 μM dantrolene (as […]), […], Vero E6 cells

O=C1CN(/N=C/c2ccc(-c3ccc([N+](=O)[O-])cc3)o2)C(O)=N1 [dantrolene]
cell viability of uninfected Vero E6 cells (uninfected Vero E6 cells): good cell viability
Day 2 Read (CPE) (SARS-CoV-2; [1]): 3/3 wells had No CPE
Day 4 Read (CPE) (SARS-CoV-2; [1]): 3/3 wells had No CPE
Day 6 Read (CPE) (SARS-CoV-2; [1]): 3/3 wells had No CPE
Day 2 Read (CPE) (SARS-CoV-2; [2]): 3/3 wells had No CPE
Day 4 Read (CPE) (SARS-CoV-2; [2]): 3/3 wells had No CPE
Day 6 Read (CPE) (SARS-CoV-2; [2]): 3/3 wells had No CPE
Day 2 Read (CPE) (SARS-CoV-2; [3]): 3/3 wells had No CPE
Day 4 Read (CPE) (SARS-CoV-2; [3]): 3/3 wells had No CPE
Day 6 Read (CPE) (SARS-CoV-2; [3]): 3/3 wells had No CPE
Day 6 Read (CPE) (SARS-CoV-2; 100 μM dantrolene (as […]), […], Vero E6 cells): 3/3 wells had >90%
CPE (SARS-CoV-2; 20-40 μM of dantrolene, […]): no CPE was observed
cytopathic effects (indicating virus growth) (SARS-CoV-2; 20 and 40 μM dantrolene, all timepoints): No cytopathic effects
MIC (SARS-CoV-2; Severe acute respiratory syndrome coronavirus 2, no CPE across all time points (Days 2, 4, 6), Vero E6 cells, read-out: minimum inhibitory concentration): 20 µM (≈ 6.29 µg/mL)
anti-viral activity (SARS-CoV-2; lower concentrations of 10 and 5 μM): showed anti-viral activity
